Measured values from patent publication US6372726B1, “Methods of cancer treatment using NAALADase inhibitors” (Guilford Pharmaceuticals Inc., priority 1996, dated 2002).
Read-outs that look alike come from different tables or passages of the source.

Columns and labels:
[1] = system: R3327 rat prostate tumors (Dunning R3327-G prostate cancer cells); assay: In vivo rat Dunning R3327 model
Method: Referring now to FIGS. 5 and 6, Dunning R3327-G prostate cancer cells were injected subcutaneously into both flanks of syngeneic male rats. […] In the second study, the anti-tumor growth activity of 2-[[phenylmethyl)hydroxyphosphinyl]methyl]pentanedioic acid was tested following daily intra-tumoral injections of the drug (0.1,1,10,100 μg) after the tumor reached an initial volume of 80-290 mm^3. Tumor volumes were subsequently monitored for 42 days after the beginning of drug treatment.
R3327-G is a cell line derived from an androgen-sensitive papillary adenocarcinoma derived from a spontaneously forming tumor in the rat prostate. […]
(§1) After the animals were released from quarantine, the rats were injected subcutaneously in both flanks with 1×10^7 R3327-G cells (0.1-ml injection volume). Tumor dimensions and body weight were measured twice weekly. Vernier calipers were used to measure tumors in three planes, and tumor volume (V) was calculated as follows: V=π(x×y×z)/6, where x, y, and z were the tumor measurements minus skin thickness. […]
(§2) The tumors were measured twice weekly. The mean tumor volume for each group was calculated for each time point. Comparisons between groups at specific times were made using an unpaired, two-tailed t-test, and the results were analyzed using analyzed of variance (ANOVA). […]

[2] = target: NAALADase (UniProt P70627); assay: In vitro assay of NAALADase activity ([3H]Glu liberated from [3H]NAAG, synaptosomal protein); type: biochemical; conditions: for NAALADase inhibiting activity (in words): comparison of Table III(a) compounds
Method: The following compounds were tested for in vitro inhibition of NAALADase activity.
Substrate and product were resolved by anion-exchange liquid chromatography. […] Quisqualate (100 μM) was included in parallel assay tubes to confirm the specificity of the measurements.

[3] = system: mice; assay: In vivo toxicity of NAALADase inhibitors in mice; conditions: doses of 1 to 500 mg/kg, observed 5 consecutive days
Description: The mice were subsequently observed two times per day for 5 consecutive days.

[4] = system: LNCAP cells (a prostate cancer cell line); assay: In vitro cancer assay: 3H-thymidine incorporation in LNCAP cells; type: cell-based, human; conditions: for 3H-Thymidine Incorporation (dpm/well): LNCAP cells, 7 days
Method: On the 7th day, the cells are pulsed with 3H-thymidine for 4 hours, harvested and measured for radioactivity. Values represent means +/−SEM of 6 separate cell wells for each treatment. All experiments are performed at least twice.
Cells are grown in RPMI-1640 media supplemented with 10% heat-inactivated fetal calf serum, 2 mM-glutamine, 100 units/ml penicillin, and 100 μg/ml streptomycin (Paragon) in a humidified incubator at 37° C. in a 5% CO2/95% O2 atmosphere.
The cells are suspended at 1×10^3 cells/ml in RPMI-1640 media and seeded into 24-well plates at 500 μl per well. […] On days 3, 5 and 7, media and drug are refreshed. On the 8th day following seeding, each well is pulsed with 1 μCi ^3H-thymidine (New England Nuclear) for 4 hours. Media is then removed and the wells washed 2 times with phosphate buffered saline (pH=7.4). […] 5 ml UltimaGold (Packard) scintillation cocktail is added and radioactivity is quantitated using a Beckman LS6001 scintillation counter.

[5] = system: LNCAP human prostate tumors; assay: In vivo LNCaP tumor xenograft assay; design: species or system mice; conditions: daily intratumoral injection (0.25 μg/day), six weeks, p=0.04
Method: Referring now to FIGS. 3 and 4, LNCaP human prostate cancer cells were injected subcutaneously into the right flank of male nude mice. […] The 2-(phosphonomethyl)pentanedioic acid polymer was changed two times per week. Tumor volumes were monitored for 42 days after the beginning of treatment.
LNCaP is a human prostate cancer cell line that was established in 1973 from a […] of a patient who had been treated with 5-FU, doxorubicin, methotrexate, and CTX in the 3 months before the cell line was initiated. This line is androgen receptor positive and has been used in screening anticancer drugs that are targeted as hormone antagonists. […]
as §1, with “mice” for “rats”, “the right flank” for “both flanks”, “LNCaP” for “R3327-G”, “cells in Matrigel™” for “cells”, “volume)” for “volume).”
as §2, with “The tumor” for “The tumors”, “twice weekly for at least 8 weeks after the first treatment.” for “twice weekly.”, “using analysis” for “using analyzed”

[6] = Table III(c), read-out: Ki Value

O=C(O)CCC(CP(=O)(O)Cc1ccccc1)C(=O)O (stereo not shown) [2-[(benzylhydroxyphosphinyl)methyl]pentanedioic acid]
Mean tumor volume relative to start of treatment (V/Vo) versus control group, FIG. 6 ([1]; daily intra-tumoral injections of 1 μg, 2.5 weeks, p=0.02): statistically significant difference

O=C(O)CCC(CP(=O)(O)Cc1c(F)c(F)c(F)c(F)c1F)C(=O)O (stereo not shown)
Ki [2, 6]: 38 nM

O=C(O)CCC(CP(=O)(O)Cc1ccccc1F)C(=O)O (stereo not shown)
Ki [2, 6]: 175 nM

O=C(O)CCC(CP(=O)(O)CCC(=O)O)C(=O)O (stereo not shown) [2-[[2-carboxyethyl)hydroxyphosphinyl]-methyl]pentanedioic acid)]
NAALADase inhibiting activity (in words) [2]: lower NAALADase inhibiting activity

CCCCP(=O)(O)CC(CCC(=O)O)C(=O)O (stereo not shown)
Ki ([2]; Table III(b), read-out: Ki): 148 nM

O=C(O)CC(CP(=O)(O)O)C(=O)O (stereo not shown) [2-(phosphonomethyl)succinic acid, reference compound]
NAALADase inhibiting activity (in words) [2]: much lower NAALADase inhibiting activity

O=C(O)CCC(CP(=O)(O)O)C(=O)O (stereo not shown) [2-(phosphonomethyl)pentanedioic acid]
Toxicological effect in mice (in words) [3]: non-toxic | Ki ([2]; Table III(a)): 0.275 ± 0.08 nM | NAALADase inhibiting activity (in words) [2]: high level of NAALADase inhibiting activity | Ki ([2]; text restating Table III(a)): 0.27 nM | Potency relative to previously described inhibitors ([2]; times more potent): > 1000 times | LNCAP cell proliferation (incorporation of [3H]thymidine), FIG. 2 ([4]; 7-day treatment, 100 pM to 10 nM): sharp dose-dependent decrease | 3H-Thymidine Incorporation (dpm/well) ([4]; 10 pM): 3078 ± 1006 dpm/well | 3H-Thymidine Incorporation (dpm/well) ([4]; 100 pM): 2062 ± 595 dpm/well | 3H-Thymidine Incorporation (dpm/well) ([4]; 1 nM): 1001 ± 52 dpm/well | 3H-Thymidine Incorporation (dpm/well) ([4]; 10 nM): 664 ± 366 dpm/well | Mean tumor volume versus control group, FIG. 3 [5]: statistically significant difference | Tumor growth, FIG. 5 ([1]; daily subcutaneous injections 1, 3, 10 and 30 mg/kg, 84 days): tumor growth slowed

Cc1cccc(P(=O)(O)CC(CCC(=O)O)C(=O)O)c1 (stereo not shown)
Ki ([2]; Table III(b), read-out: Ki): 190 nM
